The text below walks through data of PMC4191898 (Bioorganic & medicinal chemistry letters, 2014).

The subject of the first test is DU-145 cells. Put plainly: antiproliferative activity against DU-145 cells. The format is cell-based, human.
Settings: not given
With `O=C(NCc1ccsc1)N1CCC(c2nc(-c3ccc(F)cc3)no2)CC1` [Compound 8g], the “GI50 values (range in words)” value was “submicromolar range”.
On the same count and under the same terms, in the case of `Cc1cc(CNC(=O)N2CCC(c3nc(-c4ccc(F)cc4)no3)CC2)nn1C` [Compound 8o] it was “submicromolar range”.
In the case of `O=C(N1CCC(c2nc(-c3ccc(F)cc3)no2)CC1)N1CCCc2ccccc21` [Compound 8i], the “antiproliferative activity (in words)” value was “complete loss”.
On to `CCCCNC(=O)N1CCC(c2nc(-c3ccc(F)cc3)no2)CC1` [Compound 8b], for which the “antiproliferative activity (in words)” value is recorded as “no activity was detected”.
Turning to `O=C(NCc1ccsc1)N1CCCCC1c1nc(Cc2ccccc2)no1` (centres unmarked) [Compound 14], the “antiproliferative activity (in words)” value is reported as “completely eliminated”.
On the same count and under the same terms, in the case of `O=C(NCc1ccsc1)N1CCCC(c2nc(Cc3ccccc3)no2)C1` (centres unmarked) [Compound 13] it was “completely eliminated”; in that of `O=C(NCc1ccsc1)N1CCCC1c1nc(Cc2ccccc2)no1` (centres unmarked) [Compound 16], “completely eliminated”; in that of `O=C(NCc1ccsc1)N1CCC(c2nc(Cc3ccccc3)no2)C1` (centres unmarked) [Compound 15], “drastically reduced”.
Same read-out and setting: in the case of `O=C(N1CCC(c2nc(-c3ccc(F)cc3)no2)CC1)N1CCc2ccccc2C1` [Compound 8j] it was “markedly lower”.
On to `O=C(NCc1ccccc1)N1CCC(c2nc(Cc3ccccc3)no2)CC1` [Compound 11b], for which the “GI50 values (range in words)” value is “submicromolar range”.
Still for that read-out and setting: the same measure for `O=C(NCc1ccccc1)N1CCC(c2nc(COc3ccccc3)no2)CC1` [Compound 11d]: “submicromolar range”.
On to `CN(Cc1ccco1)C(=O)N1CCC(c2nc(-c3ccc(F)cc3)no2)CC1` [Compound 8a], for which the “antiproliferative activity (in words)” value is listed as “markedly lower”.
On the same count and under the same terms, the same measure for `COC(=O)CNC(=O)N1CCC(c2nc(-c3ccc(F)cc3)no2)CC1` [Compound 8e]: “no activity was detected”; for `C#CCNC(=O)N1CCC(c2nc(-c3ccc(F)cc3)no2)CC1` [Compound 8k]: “no activity was detected”.

Still in this test, the particulars now being: means of three experiments ± standard deviation, Inactive = <20% DU-145 growth inhibition at 50 μM.
`O=C(N1CCC(c2nc(-c3ccc(F)cc3)no2)CC1)N1CCCc2ccccc21` [Compound 8i]: the GI50 entry is “Inactive”.
In the case of `CCCCNC(=O)N1CCC(c2nc(-c3ccc(F)cc3)no2)CC1` [Compound 8b], the GI50 entry is recorded as “Inactive”.
The same measure, in the same setting: in the case of `O=C(N1CCCCC1)N1CCC(c2nc(-c3ccc(F)cc3)no2)CC1` [Compound 8m] it was “Inactive”; in that of `O=C(NCC1CC1)N1CCC(c2nc(-c3ccc(F)cc3)no2)CC1` [Compound 8s], “Inactive”; in that of `CC(C)Cc1noc(C2CCN(C(=O)NCc3ccccc3)CC2)n1` [Compound 11i], “Inactive”.
The same measure, in the same setting: the same measure for `O=C(N1CCC(c2nc(-c3ccc(F)cc3)no2)CC1)N1CCc2ccccc21` [Compound 8l]: “Inactive”.
On the same count and under the same terms, in the case of `O=C(N1CCOCC1)N1CCC(c2nc(-c3ccc(F)cc3)no2)CC1` [Compound 8n] it was “Inactive”; in that of `Cc1noc(C2CCN(C(=O)NCc3ccccc3)CC2)n1` [Compound 11j], “Inactive”; in that of `COCCNC(=O)N1CCC(c2nc(-c3ccc(F)cc3)no2)CC1` [Compound 8r], “Inactive”.
Turning to `COC(=O)CNC(=O)N1CCC(c2nc(-c3ccc(F)cc3)no2)CC1` [Compound 8e], the GI50 entry is “Inactive”.
The same measure, in the same setting: the same measure for `CC(C)(C)NC(=O)N1CCC(c2nc(-c3ccc(F)cc3)no2)CC1` [Compound 8q]: “Inactive”; for `C#CCNC(=O)N1CCC(c2nc(-c3ccc(F)cc3)no2)CC1` [Compound 8k]: “Inactive”.
